Measured values from patent publication US9163027B2, “Substituted triazolo-pyrimidine compounds for modulating cell proliferation differentiation and survival” (STATegics, Inc., priority 2012, dated 2015).

Key:
[1] = test system: PC12 cells; experiment: PC12 cell survival under serum deprivation (CellTiter-Glo); format: cell-based, rat; conditions: 72 h serum-free; for minimal effective concentration: Rattus norvegicus, PC-12, read-out: PC12 cell proliferation (CellTiter-Glo ®) Concentration at which RLU increased >25% compared to medium control
Procedure: Each culture condition was performed in quadruplicate in each experiment and the mean values were calculated. The results represent mean±SEM of relative light unit values when compared to the mean values obtained in the presence of the medium alone. A total of 13 experiments were performed and the statistical significance was analyzed using GraphPad Prism software using ANOVA, followed by paired t-test. The symbol * indicates P-values <0.01.
PC12 cells were cultured in DMEM supplemented with 10% fetal calf serum and 5% horse serum. […] Cell viability was analyzed by CellTiter-Glo® reagent (Promega).
PC12 cells were cultured in DMEM supplemented with 10% fetal calf serum and 5% horse serum. […] Cell survival of the serum-starved cells was analyzed by CellTiter-Glo® reagent luminescence reading.
FIG. 2 illustrates neuroprotective effects of Compounds 1-5 when tested in PC12 cell protection assays. PC12 cells were subjected to serum deprivation as described under FIG. 1.
PC12 cells were cultured in DMEM supplemented with 10% fetal calf serum and 5% horse serum. […] Cell survival of the serum-starved cells was analyzed by CellTiter-Glo® reagent luminescence reading (relative light units, “RLU”). […] “NS” indicates RLU increased <25% when compounds were tested at 5 uM.

[2] = test system: rat ventral mesencephalic dopaminergic neurons; experiment: Protection of primary dopaminergic neurons from 6-OHDA (THir neuron staining); format: cell-based; conditions: 6.25 uM 6-OHDA 40 min, FIG. 7
Procedure: Dissociated embryonic D14 rat ventral mesencephalic cells were used.
Dopaminergic neurons play a key role in the pathogenesis of Parkinson's disease and compounds enhancing survival of these cells have significant therapeutic potential. Dissociated embryonic D14 rat ventral mesencephalic cells were used to test the potential of EPO mimetic compounds to protect primary dopaminergic neurons. […] The cells were plated in 48-well poly-D-lysine coated plates using a microisland technique. The microislands were seeded into dry plates in 10 uL aliquots of 3000 cells/uL and incubated at 37° C. for 1 h to allow for adhesion. […] On day 3, the medium was replaced with 6.25 uM 6-hydroxydopamine (6-OHDA, Sigma) for a 40 minute incubation. The toxin was then removed and the cells were cultured for an additional 2 days. On day 5, the cells were fixed, permeabilized and stained for tyrosine hydroxylase-immunoreactive (THir) neurons.

[3] = test system: human CD34+ hematopoietic stem cells; experiment: Proliferation and differentiation of primary human CD34+ cells; format: cell-based
Procedure: Compound 10 was tested at different concentrations for its ability to induce proliferation and differentiation of human CD34+ hematopoietic stem cells. Human CD34+ cells were purified by (FIG. 6A) immunomagnetic beads (>90% purity, purchased from Stem Cell Technologies) or (FIG. 6B) cell sorting (at Blood Systems Research Institute) and the cells were cultured in the presence of compounds for eight (FIG. 6A) or eleven (FIG. 6B) days. (FIG. 6A) The level of cell growth and survival was measured based on ATP levels (CellTiterGlo reagent), or (FIG. 6B) the expression level of CD235a was analyzed by flow cytometry as a marker for cell maturation. Cell survival was analyzed using the CellTiterGlo reagent to measure ATP levels as a marker of metabolically active cells that have not undergone apoptosis, and expression of CD235a as a marker of erythroid cell differentiation and as a specific marker for EPO-like erythropoietic activity.

[4] = test system: frataxin; experiment: Frataxin protein levels in primary human fetal neurons (ELISA); format: cell-based; conditions: 28 days in culture, 24 h incubation, FIG. 4B
Procedure: The effects of the compounds on frataxin protein levels in cells were analyzed. […] Embryonic mouse cell line P19 was differentiated into neuronal cells in the presence of retinoic acid and frataxin levels were measured (FIG. 4A). Frataxin levels were measured after 24 h by multi-species frataxin-ELISA (MitoSciences) and compared to total protein levels. The data represent mean±SEM. Primary human fetal neurons (28 days in culture) were also incubated for 24 h in the presence of the compounds, and human frataxin levels were measured by ELISA (MitoSciences) and compared to total protein levels (FIG. 4B). The data represent mean±SEM of triplicate measurements. Compounds were also tested for their effects on frataxin levels in cells derived from patients with FRDA. Cultures of patient peripheral blood mononuclear cells (PBMCs) were also used to test the EPO mimetic compounds for frataxin enhancement in frataxin-deficient cells. Compound 1 and Compounds 5-6 enhanced frataxin levels in these patient cells at concentration 1 uM or lower.

[5] = biological target: T1, EPO receptor (Homo sapiens, UniProt P19235); experiment: EPO receptor phosphorylation in primary human fetal neural cells (phospho-EPOR ELISA); format: cell-based; conditions: FIG. 5A; for EPO receptor phosphorylation: 10 min incubation; for level of receptor activation compared with recombinant human EPO: recombinant human EPO 10 IU/ml
T1 construct: endogenous in cells; host or cells: primary human fetal neural cells cultured from micro-dissected fetal brain tissue (Advanced Bioscience Resources, Inc.)
T1 sequence (P19235 25-508): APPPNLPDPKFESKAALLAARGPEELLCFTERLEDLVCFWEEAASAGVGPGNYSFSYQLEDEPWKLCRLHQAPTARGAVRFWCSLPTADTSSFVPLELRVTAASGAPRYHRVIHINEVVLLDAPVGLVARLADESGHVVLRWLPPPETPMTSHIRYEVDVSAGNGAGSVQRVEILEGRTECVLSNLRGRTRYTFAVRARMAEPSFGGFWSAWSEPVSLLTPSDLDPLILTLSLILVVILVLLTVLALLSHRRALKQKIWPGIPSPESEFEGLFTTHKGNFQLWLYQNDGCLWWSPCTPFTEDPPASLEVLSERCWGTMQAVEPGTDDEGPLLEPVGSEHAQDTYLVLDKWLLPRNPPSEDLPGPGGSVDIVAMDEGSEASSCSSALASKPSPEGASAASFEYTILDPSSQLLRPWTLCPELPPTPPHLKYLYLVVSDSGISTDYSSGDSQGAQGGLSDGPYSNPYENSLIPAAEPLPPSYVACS
Procedure: (§1) Primary micro-dissected fetal brain tissue was obtained from a commercial source (Advanced Bioscience Resources, Inc., Alameda, Calif.). Cultured primary human fetal neural cells (3 h, 1 day, 17 days, or 26 days in culture) were incubated with Compound 5, Compound 6, or controls for 10 min (FIG. 5A). Phospho-EPOR was detected by ELISA (R&D Systems). […] Human erythropoietic cell line TF-1 was cultured for 10 min in the presence of Compound 5, Compound 6, or the controls, and phospho-EPOR was detected by ELISA (R&D Systems). The data represent mean±SEM of triplicate cultures. […] The receptor activation results were consistent with functional cell based assays using primary human CD34+ bone marrow progenitor cells and erythroleukemia cell line TF-1.

[6] = test system: rats; experiment: Kidney and CNS protection against DMA + Cremophor EL toxicity in rats; format: in vivo, rat; conditions: DMA + CrEL 2.5 mL/kg each IP
Procedure: High-dose N,N-dimethylacetamide (DMA)+Cremophor EL (CrEL) (2.5 mL/kg each, IP) was used to induce acute CNS and organ toxicity, and the potential of Compound 5 to protect the rats was studied.

[7] = test system: primary human neurons; experiment: Neuroprotection of primary human neurons against staurosporine; format: cell-based; conditions: 47 days in culture, compound 24 h, then staurosporine 500 nM 24 h, FIG. 3B
Procedure: A) Primary rat cortical neurons were isolated from micro-surgically dissected regions of day 18 embryonic rat brain (Brain Bits, LLC, Springfield, Ill.) and cultured for 12 days in vitro. Then, Compounds 5-7 were added for 24 h. Next, NMDA (50 uM) was added and the cells were cultured for an additional 24 hours. Cells cultured without the insult were considered to represent 0% neuron death. The data represent mean±SEM of six replicate cultures and * indicates P value ≦0.05. B) Primary micro-dissected fetal brain tissue was obtained from a commercial source (Advanced Bioscience Resources, Inc., Alameda, Calif.). […] Staurosporine (500 nM) was added and the cells were cultured for an additional 24 hours. Cells cultured without the insult were considered to represent 0% neuron death. The data represent mean±SEM of six replicate cultures and * indicates P value ≦0.05.

[8] = test system: TF-1 cells; experiment: Proliferation of TF-1 cells; format: cell-based, human; conditions: at concentrations that provided significant neuroprotective effects
[9] = test system: EPO receptor; experiment: EPO receptor phosphorylation in erythroleukemia cell line TF-1 (phospho-EPOR ELISA); format: cell-based, human; conditions: TF-1, 10 min, FIG. 5B
Procedure: as §1

[10] = test system: frataxin; conditions: patients with chronic kidney disease, rhEPO infusion for anemia (Sturm et al. 2005); cited from earlier work
[11] = human, intravenous administration (Xenocostas et al. 2005); cited from earlier work
[12] = test system: frataxin; conditions: 8 FRDA patients, open label pilot trial (Boesch et al. 2008); cited from earlier work
[13] = test system: rats; conditions: rat model of MCA occlusion (Brines et al. 2000); cited from earlier work
[14] = NS = RLU increased <25% at 5 uM

Row | Molecule | minimal effective concentration [1, 14] [µM] | frataxin protein levels [4] | EPO receptor phosphorylation [5] | level of receptor activation compared with recombinant human EPO [5] | neuroprotective effect (neuron death) [7] | proliferation of TF-1 cells [8] | EPO receptor activation (phospho-EPOR) [9] | also measured
1 | Cc1cc(C)n2nc(SCCOc3ccc(Cl)cc3)nc2n1 [Example 1, 2-{[2-(4-chlorophenoxy)ethyl]sulfanyl}-5,7-dimethyl-[1,2,4]triazolo[1,5-a]pyrimidine] | < 5 |  |  |  |  |  |  | protection of PC12 cells (cell viability) ([1]; 1 uM, FIG. 1, at least comparable to rhEPO): significant effect; level of protection of PC12 cells compared with rhEPO ([1]; 5 uM vs rhEPO 10 U/ml, FIG. 1): higher level of protection than rhEPO; protection of dopaminergic neurons from 6-OHDA toxicity ([2]; 1 uM): significantly protected
2 | COc1ccc(NC(=O)CSc2nc3nc(C)cc(C)n3n2)cc1 [Example 10, 2-({5,7-dimethyl-[1,2,4]triazolo[1,5-a]pyrimidin-2-yl}sulfanyl)-N-(4-methoxyphenyl)acetamide] |  |  |  |  |  |  |  | PC12 cell proliferation (CellTiter-Glo ®) Concentration at which RLU increased >25% compared to medium control [1, 14]: NS (RLU increased <25% when compounds were tested at 5 uM); CD34+ progenitor cell proliferation (ATP levels, CellTiterGlo) ([3]; eight days culture, FIG. 6A): dose-dependent induction of CD34+ progenitor cell proliferation; differentiation into erythroid cells (CD235a expression, flow cytometry) ([3]; eleven days culture, FIG. 6B): differentiation into erythroid cells expressing CD235a
3 | Cc1cc(C)n2nc(OCCOc3ccc(Cl)cc3)nc2n1 [Example 11, 2-[2-(4-chlorophenoxy)ethoxy]-5,7-dimethyl-[1,2,4]triazolo[1,5-a]pyrimidine] | < 5 | increased frataxin protein levels | increased EPO receptor phosphorylation in a dose-dependent manner | comparable to that induced by recombinant human EPO | Significant protective effects | did not induce proliferation | did not activate EPO receptor | CNS toxicity of DMA/CrEL [6]: prevented the CNS toxicity; response of the rats to formalin injection [6]: normalized the response; kidney-protective effects measured by hypoproteinemia in serum ([6]; FIG. 8): Kidney-protective effects
4 | Cc1cc(C)n2nc(OCCN(CCO)c3ccccc3)nc2n1 [Example 13, 2-{[2-({5,7-Dimethyl-[1,2,4]triazolo[1,5-a]pyrimidin-2-yl}oxy)ethyl](phenyl)amino}ethan-1-ol] | < 5 | increased frataxin protein levels | increased EPO receptor phosphorylation in a dose-dependent manner | comparable to that induced by recombinant human EPO | Significant protective effects | did not induce proliferation | did not activate EPO receptor | 
5 | rhEPO: recombinant human (rh)EPO, erythropoietin; positive control |  |  |  |  |  |  | effective | increase in frataxin levels in peripheral blood mononuclear cells [10]: 2-3 fold; concentration in cerebrospinal fluid lower than in circulation [11]: more than 1000 fold; increase in frataxin in lymphocytes [12]: 24%; reduction of infarct volume [13]: 50-75%; protection of dopaminergic neurons from 6-OHDA toxicity ([2]; 10 IU/ml): significantly protected
